Patent publication US10428080B2, “TBK/IKK inhibitor compounds and uses thereof” (Merck Patent GmbH, priority 2015, dated 2019)
Where a name gives a salt, the structure may show the parent alone.

Legend:
IKKε = biological target: T1, IKKε (Homo sapiens, UniProt Q14164); experiment: IKKe Biochemical Assay; settings: read-out: IKKε IC50
T1 sequence (Q14164 1-716): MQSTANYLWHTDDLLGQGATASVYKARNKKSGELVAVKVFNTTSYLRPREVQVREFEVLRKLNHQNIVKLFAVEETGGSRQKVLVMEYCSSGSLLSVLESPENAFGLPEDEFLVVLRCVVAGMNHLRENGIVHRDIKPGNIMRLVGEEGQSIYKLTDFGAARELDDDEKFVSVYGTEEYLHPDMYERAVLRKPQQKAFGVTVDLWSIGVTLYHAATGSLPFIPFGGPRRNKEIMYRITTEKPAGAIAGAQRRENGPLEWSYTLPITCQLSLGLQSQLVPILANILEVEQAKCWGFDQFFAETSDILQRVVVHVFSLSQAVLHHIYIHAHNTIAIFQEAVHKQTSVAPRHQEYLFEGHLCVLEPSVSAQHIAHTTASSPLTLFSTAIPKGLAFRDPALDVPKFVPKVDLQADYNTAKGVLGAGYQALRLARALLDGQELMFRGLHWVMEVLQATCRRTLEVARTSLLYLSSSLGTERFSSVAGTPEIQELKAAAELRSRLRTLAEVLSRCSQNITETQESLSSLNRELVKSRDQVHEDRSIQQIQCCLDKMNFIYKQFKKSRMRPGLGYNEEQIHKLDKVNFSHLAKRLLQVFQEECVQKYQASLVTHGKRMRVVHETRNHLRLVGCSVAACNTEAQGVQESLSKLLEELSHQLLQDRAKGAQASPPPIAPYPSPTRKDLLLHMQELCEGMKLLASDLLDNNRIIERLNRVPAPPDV
How it was run: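 Recombinant IKKε and substrate were incubated with compound (10-point 1:4 series, top 30 uM final, 1% DMSO) for 90 min at 25° C, then stopped. Substrate-to-product conversion was read by LabChip microfluidic mobility shift; 10 uM staurosporine served as full-inhibition wells.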

TBK1 = biological target: T2, TBK1 (Homo sapiens, UniProt Q9UHD2); experiment: TBK Biochemical Assay; settings: read-out: TBK1 IC50
T2 sequence (Q9UHD2 1-729): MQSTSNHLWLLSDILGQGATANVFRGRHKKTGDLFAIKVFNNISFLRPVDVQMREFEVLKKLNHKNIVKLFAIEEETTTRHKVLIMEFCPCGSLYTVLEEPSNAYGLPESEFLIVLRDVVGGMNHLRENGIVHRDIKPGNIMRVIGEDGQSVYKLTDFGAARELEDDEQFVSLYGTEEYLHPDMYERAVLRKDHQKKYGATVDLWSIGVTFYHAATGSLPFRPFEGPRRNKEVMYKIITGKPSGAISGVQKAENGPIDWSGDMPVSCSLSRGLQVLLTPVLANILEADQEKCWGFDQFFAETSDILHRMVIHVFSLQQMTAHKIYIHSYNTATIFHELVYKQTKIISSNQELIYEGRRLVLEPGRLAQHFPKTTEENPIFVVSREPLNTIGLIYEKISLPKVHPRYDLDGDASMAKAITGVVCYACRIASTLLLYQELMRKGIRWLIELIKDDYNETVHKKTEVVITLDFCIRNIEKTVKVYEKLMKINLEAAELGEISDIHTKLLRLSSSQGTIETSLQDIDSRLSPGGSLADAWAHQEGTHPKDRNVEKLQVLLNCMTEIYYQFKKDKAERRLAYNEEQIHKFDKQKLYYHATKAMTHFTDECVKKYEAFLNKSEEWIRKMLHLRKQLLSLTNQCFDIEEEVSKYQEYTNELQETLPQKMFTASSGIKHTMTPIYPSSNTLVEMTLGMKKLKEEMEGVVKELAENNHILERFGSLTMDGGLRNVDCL
How it was run: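 TBK1 enzyme and substrate incubated with compounds (10-point 1:4 dilution, top 30 uM final, 1% DMSO) for 90 min at 25° C, then stopped. Substrate/product peaks read by microfluidic mobility-shift (Caliper LabChip); 10 uM staurosporine as full-inhibition control.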

## COc1cc(C(=O)N(C)C)ccc1-c1cc2nccc(-c3cc(F)c(NC4CCOCC4)c(C#N)c3)c2o1 [Compound 236, 4-(7-(3-cyano-5-fluoro-4-(tetrahydro-2H-pyran-4-ylamino)phenyl)furo[3,2-b]pyridin-2-yl)-3-methoxy-N,N-dimethylbenzamide]
IKKε
  IC50: < 0.1 µM
TBK1
  IC50: < 0.1 µM

## CN(C)C(=O)c1ccc(-c2cc3nccc(-c4ccc(NC5CCOCC5)c(C#N)c4)c3o2)cc1 [Compound 194, 4-(7-(3-cyano-4-(tetrahydro-2H-pyran-4-ylamino)phenyl)furo[3,2-b]pyridin-2-yl)-N,N-dimethylbenzamide hydrochloride]
IKKε
  IC50: 0.1 to 1 µM
TBK1
  IC50: 0.1 to 1 µM

## COc1cc(C(=O)N2CCC(C)(O)C2)ccc1-c1cc2nccc(-c3ccc(OC4CCOCC4)c(C#N)c3)c2o1 (stereo not drawn) [Compound 19, 5-{2-[4-(3-Hydroxy-3-methyl-pyrrolidine-1-carbonyl)-2-methoxy-phenyl]-furo[3,2-b]pyridin-7-yl}-2-(tetrahydro-pyran-4-yloxy)-benzonitrile]
IKKε
  IC50: < 0.1 µM
TBK1
  IC50: < 0.1 µM

## CN(C)C(=O)c1ccc(-c2cc3nccc(-c4ccc(OC5CCOCC5)c(C#N)c4)c3o2)c(OC(F)(F)F)c1 [Compound 241, 4-(7-(3-cyano-4-(tetrahydro-2H-pyran-4-yloxy)phenyl)furo[3,2-b]pyridin-2-yl)-N,N-dimethyl-3-(trifluoromethoxy)benzamide]
IKKε
  IC50: < 0.1 µM
TBK1
  IC50: < 0.1 µM

## COc1cc(C(=O)N(C)C)ccc1-c1cc2ncc(Cl)c(-c3ccc(NC4CCOCC4)c(C#N)c3)c2o1 [Compound 266, 4-(6-chloro-7-(3-cyano-4-(tetrahydro-2H-pyran-4-ylamino)phenyl)furo[3,2-b]pyridin-2-yl)-3-methoxy-N,N-dimethylbenzamide]
IKKε
  IC50: 0.1 to 1 µM
TBK1
  IC50: 0.1 to 1 µM

## COc1cc(C(=O)N(C)C)cnc1-c1cc2ncc(C)c(-c3ccc(OC4CCOCC4)c(C#N)c3)c2o1 [Compound 320, 6-(7-(3-cyano-4-(tetrahydro-2H-pyran-4-yloxy)phenyl)-6-methylfuro[3,2-b]pyridin-2-yl)-5-methoxy-N,N-dimethylnicotinamide]
IKKε
  IC50: 1 to 5 µM
TBK1
  IC50: 1 to 5 µM

## COc1cc(C(=O)N(C)CCO)cnc1-c1cc2ncc(C3CC3)c(-c3ccc(OC4CCOCC4)c(C#N)c3)c2o1 [Compound 341, 6-[7-[3-cyano-4-(oxan-4-yloxy)phenyl]-6-cyclopropylfuro[3,2-b]pyridin-2-yl]-N-(2-hydroxyethyl)-5-methoxy-N-methylpyridine-3-carboxamide hydrochloride]
IKKε
  IC50: > 5 µM
TBK1
  IC50: > 5 µM

## CN(C)C(=O)c1ccc(-c2cc3nccc(-c4ccc(Oc5ccccc5F)c(C#N)c4)c3o2)cc1 [Compound 178, 4-{7-[3-Cyano-4-(2-fluoro-phenoxy)-phenyl]-furo[3,2-b]pyridin-2-yl}-N,N-dimethyl-benzamide]
IKKε
  IC50: 0.1 to 1 µM
TBK1
  IC50: 0.1 to 1 µM

## COc1cc(C(=O)N(C)C)ccc1-c1cc2nccc(-c3cc(F)c(N(C)C4CCOCC4)c(C#N)c3)c2o1 [Compound 237, 4-(7-(3-cyano-5-fluoro-4-(methyl(tetrahydro-2H-pyran-4-yl)amino)phenyl)furo[3,2-b]pyridin-2-yl)-3-methoxy-N,N-dimethylbenzamide]
IKKε
  IC50: < 0.1 µM
TBK1
  IC50: < 0.1 µM

## CN(C)C(=O)c1ccc(-c2cc3nccc(-c4ccc(OC5CCOCC5)c(C#N)c4)c3o2)nn1 [Compound 242, 6-(7-(3-cyano-4-(tetrahydro-2H-pyran-4-yloxy)phenyl)furo[3,2-b]pyridin-2-yl)-N,N-dimethylpyridazine-3-carboxamide hydrochloride]
IKKε
  IC50: 0.1 to 1 µM
TBK1
  IC50: 0.1 to 1 µM

## COc1cc(C(=O)N2C3CCC2COC3)ccc1-c1cc2nccc(-c3ccc(OC4CCOCC4)c(C#N)c3)c2o1 [Compound 2, 5-{2-[2-Methoxy-4-(3-oxa-8-aza-bicyclo[3.2.1]octane-8-carbonyl)-phenyl]-furo[3,2-b]pyridin-7-yl}-2-(tetrahydro-pyran-4-yloxy)-benzonitrile]
IKKε
  IC50: < 0.1 µM
TBK1
  IC50: < 0.1 µM

## COc1cc(C(=O)NC2CCOCC2)ccc1-c1cc2nccc(-c3ccc(OC4CCOCC4)c(C#N)c3)c2o1 [Compound 83, 4-{7-[3-Cyano-4-(tetrahydro-pyran-4-yloxy)-phenyl]-furo[3,2-b]pyridin-2-yl}-3-methoxy-N-(tetrahydro-pyran-4-yl)-benzamide]
IKKε
  IC50: < 0.1 µM
TBK1
  IC50: < 0.1 µM

## COc1cc(C(=O)N(C)C2CCN(C)C2)ccc1-c1cc2nccc(-c3ccc(OC4CCOCC4)c(C#N)c3)c2o1 (stereo not drawn) [Compound 61, 4-{7-[3-Cyano-4-(tetrahydro-pyran-4-yloxy)-phenyl]-furo[3,2-b]pyridin-2-yl}-3-methoxy-N-methyl-N-(1-methyl-pyrrolidin-3-yl)-benzamide]
IKKε
  IC50: < 0.1 µM
TBK1
  IC50: < 0.1 µM

## COc1cc(C(=O)N[C@@H]2CCNC[C@@H]2F)ccc1-c1cc2nccc(-c3ccc(NC4CCOCC4)c(C#N)c3)c2o1 (single isomer, unassigned) [Compound 251, 4-(7-(3-cyano-4-(tetrahydro-2H-pyran-4-ylamino)phenyl)furo[3,2-b]pyridin-2-yl)-N-(3-fluoropiperidin-4-yl)-3-methoxybenzamide hydrochloride]
IKKε
  IC50: < 0.1 µM
TBK1
  IC50: < 0.1 µM

## C[C@@H]1COC[C@H](C)[C@H]1Oc1ccc(-c2ccnc3cc(-c4ccc(C(=O)N(C)C)cc4)oc23)cc1C#N (single isomer, unassigned) [Compound 219, 4-(7-(3-cyano-4-(3,5-dimethyl-tetrahydro-2H-pyran-4-yloxy)phenyl)furo[3,2-b]pyridin-2-yl)-N,N-dimethylbenzamide hydrochloride]
IKKε
  IC50: 0.1 to 1 µM
TBK1
  IC50: 0.1 to 1 µM

## COc1cc(C(=O)N(C)CCO)ccc1-c1cc2ncc(C)c(-c3ccc(NC4CCOCC4)c(C#N)c3)c2o1 [Compound 268, 4-(7-(3-cyano-4-(tetrahydro-2H-pyran-4-ylamino)phenyl)-6-methylfuro[3,2-b]pyridin-2-yl)-N-(2-hydroxyethyl)-3-methoxy-N-methylbenzamide]
IKKε
  IC50: 0.1 to 1 µM
TBK1
  IC50: 0.1 to 1 µM

## CN(C)C(=O)c1ccc(-c2cc3nccc(-c4ccc(Oc5cccnc5)c(C#N)c4)c3o2)cc1 [Compound 181, 4-{7-[3-Cyano-4-(pyridin-3-yloxy)-phenyl]-furo[3,2-b]pyridin-2-yl}-N,N-dimethyl-benzamide]
IKKε
  IC50: 0.1 to 1 µM
TBK1
  IC50: 0.1 to 1 µM

## COc1cc(C(=O)NC2CC3CCC2C3)ccc1-c1cc2nccc(-c3ccc(OC4CCOCC4)c(C#N)c3)c2o1 (stereo not drawn) [Compound 496]
IKKε
  IC50: < 0.1 µM
TBK1
  IC50: < 0.1 µM

## COc1cc(C(=O)N(C)C)ccc1-c1cc2nccc(-c3ccc(O[C@@H]4CCNC4)c(C#N)c3)c2o1 [Compound 115, 4-{7-[3-Cyano-4-((R)-pyrrolidin-3-yloxy)-phenyl]-furo[3,2-b]pyridin-2-yl}-3-methoxy-N,N-dimethyl-benzamide]
IKKε
  IC50: < 0.1 µM
TBK1
  IC50: < 0.1 µM

## COc1cc(C(=O)N(C)CCO)cnc1-c1cc2ncc(C)c(-c3ccc(OC4CCOCC4)c(C#N)n3)c2o1 [Compound 360, 6-[7-[6-cyano-5-(oxan-4-yloxy)pyridin-2-yl]-6-methylfuro[3,2-b]pyridin-2-yl]-N-(2-hydroxyethyl)-5-methoxy-N-methylpyridine-3-carboxamide hydrochloride]
IKKε
  IC50: 0.1 to 1 µM
TBK1
  IC50: 0.1 to 1 µM

## CC1CC(Oc2ccc(-c3ccnc4cc(-c5ccc(C(=O)O)cc5)oc34)cc2C#N)CC(C)O1 (stereo not drawn) [Compound 189]
IKKε
  IC50: 1 to 5 µM
TBK1
  IC50: > 5 µM
